Experimental data reported in patent US5770383A, “Tricyclic retinoids, methods for their production and use” (Ligand Pharmaceuticals, Inc., priority 1995, dated 1998).

Assays:
RARs = test: Co-transfection assay, RARs taken together; format: cell-based; settings: Table 1
Method: (§1) Utilizing the "cis-trans" or "co-transfection" assay described by Evans et al., Science, 240:889-95 (May 13, 1988), the disclosure of which is herein incorporated by reference, the retinoid compounds of the present invention were tested and found to have strong, specific activity as either selective RAR agonists, selective RXR agonists, or as pan-agonist activators of both RAR and RXR receptors. This assay is described in further detail in U.S. Pat. Nos. 4,981,784 and 5,071,773, the disclosures of which are incorporated herein by reference.
(§2) The co-transfection assay provides a method for identifying functional agonists which mimic, or antagonists which inhibit, the effect of native hormones, and quantifying their activity for responsive IR proteins. In this regard, the co-transfection assay mimics an in vivo system in the laboratory. Importantly, activity in the co-transfection assay correlates very well with known in vivo activity, such that the co-transfection assay functions as a qualitative and quantitative predictor of a tested compounds Ln vivo pharmacology. See, e.g., T. Berger et al. 41 J. Steroid Biochem. Molec. Biol. 733 (1992), the disclosure of which is herein incorporated by reference.
(§3) In the co-transfection assay, a cloned cDNA for an IR (e.g., human RARα, RARβ, RXRγ) under the control of a constitutive promoter (e.g., the SV 40 promoter) is introduced by transfection (a procedure to induce cells to take up foreign genes) into a background cell substantially devoid of endogenous IRs. This introduced gene directs the recipient cells to make the IR protein of interest. A second gene is also introduced (co-transfected) into the same cells in conjunction with the IR gene. This second gene, comprising the cDNA for a reporter protein, such as firefly luciferase (LUC), controlled by an appropriate hormone responsive promoter containing a hormone response element (HRE). This reporter plasmid functions as a reporter for the transcription-modulating activity of the target IR. Thus, the reporter acts as a surrogate for the products (mRNA then protein) normally expressed by a gene under control of the target receptor and its native hormone.
The co-transfection assay can detect small molecule agonists or antagonists of target IRs. Exposing the transfected cells to an agonist ligand compound increases reporter activity in the transfected cells. This activity can be conveniently measured, e.g., by increasing luciferase production, which reflects compound-dependent, IR-mediated increases in reporter transcription. […] . Increasing concentrations of a suspected antagonist will decrease the reporter signal (e.g., luciferase production). The co-transfection assay is therefore useful to detect both agonists and antagonists of specific IRs. […]

RAR and RXR receptors = test: Co-transfection assay, RARs and RXRs taken together; format: cell-based
Method: as §1, §2, §3
The co-transfection assay can detect small molecule agonists or antagonists of target IRs. Exposing the transfected cells to an agonist ligand compound increases reporter activity in the transfected cells. This activity can be conveniently measured, e.g., by increasing luciferase production, which reflects compound-dependent, IR-mediated increases in reporter transcription. […] . Increasing concentrations of a suspected antagonist will decrease the reporter signal (e.g., luciferase production). The co-transfection assay is therefore useful to detect both agonists and antagonists of specific IRs. Furthermore, it determines not only whether a compound interacts with a particular IR, but whether this interaction mimics (agonizes) or blocks (antagonizes) the effects of the native regulatory molecules on target gene expression, as well as the specificity and strength of this interaction.
To determine RAR and/or RXR agonist activity of the compounds of the present invention, the CV-1 cells were transiently transfected by calcium phosphate coprecipitation according to the procedure of Berger et al., 41 J.Steroid Biochem. Mol. Biol., 733 (1992) with the following receptor expressing plasmids: pRShRARα: Giguere et al., 330 Nature, 624 (1987); pRShRARβ and pRShRARγ, Ishikawa et al., 4 Mol. Endocrin., 837 (1990); pRShRXRα, Mangelsdorf et al., 345 Nature, 224 (1990); and pRSmRXRβ and pRSmRXRγ, Mangelsdorf et al., 6 Genes & Devel., 329 (1992), the disclosures of which are herein incorporated by reference.

TPA induction of ODC = settings: literature; cited from earlier work
AML-193 cell line = test: Incorporation of 3H-thymidine, AML-193; settings: 96 h, read-out: TdR IC50

SMILES | RAR activity in words (RARs) | selectivity / potency profile on RARs and RXRs in words (RAR and RXR receptors) | effect on ODC activity, in words (TPA induction of ODC) | IC50 (AML-193 cell line) [nM]
CC(/C=C/C=C1/CCCc2cc3c(cc21)C(C)(C)CCC3(C)C)=C\C(=O)O [Compound 101b, (2E,4E)-3-Methyl-6-[(Z)-3,4,5,6,7,8-hexahydro-5,5,8,8-tetramethyl-2H-anthracen-1-ylidene]hexa-2,4-dienoic acid] | extremely potent RAR active | superior potency profiles to that of the known RXR active pan-agonist compound 9-cis retinoic acid | – | –
CC(/C=C/CC1CCCc2cc3c(cc21)C(C)(C)CCC3(C)C)=C\C(=O)O (racemic) [Compound 124b, (2E,4E)-3-Methyl-6-(1,2,3,4,5,6,7,8-octahydro-5,5,8,8-tetramethylanthracen-1-yl)hexa-2,4-dienoic acid] | – | superior potency profiles to that of the known RXR active pan-agonist compound 9-cis retinoic acid | – | –
CC(/C=C/C=C1\CCCc2cc3c(cc21)C(C)(C)CCC3(C)C)=C\C(=O)O [Compound 109b, (2E,4E)-3-Methyl-6-[(E)-3,4,5,6,7,8-hexahydro-5,5,8,8-tetramethyl-2H-anthracen-1-ylidene]hexa-2,4-dienoic acid] | extremely potent RAR active | RAR selective | – | –
CC(/C=C/C=C1\CCOc2cc3c(cc21)C(C)(C)CCC3(C)C)=C\C(=O)O [Compound 119b, (2E,4E)-3-Methyl-6-[(E)-2,3,6,7,8,9-hexahydro-6,6,9,9-tetramethyl-benzo[g]chromen-4-ylidene]hexa-2,4-dienoic acid] | extremely potent RAR active | RAR selective | – | –
CCCCCCCCCCCCCC(=O)O[C@@H]1[C@@H](C)[C@@]2(O)[C@@H](C=C(CO)C[C@]3(O)C(=O)C(C)=C[C@@H]23)[C@@H]2C(C)(C)[C@]12OC(C)=O [TPA, 12-0-tetradecanoylphorbor-13-acetate] | – | – | induces ODC activity | –
C/C(=C\c1ccc(C(=O)O)cc1)c1ccc2c(c1)C(C)(C)CCC2(C)C [TTNPB, (E)-4-[2-(5,6,7,8-tetrahydro-5,5,8,8-tetramethyl-2-napthalenyl)-1-propenyl]benzoic acid] | – | – | – | 0.1
CC1=C(/C=C/C(C)=C/C=C/C(C)=C/C(=O)O)C(C)(C)CCC1 [retinoic acid] | – | – | inhibits this induction of ODC by TPA | –
CC(/C=C/C=C1/CCOc2cc3c(cc21)C(C)(C)CCC3(C)C)=C\C(=O)O [Compound 144b] | extremely potent RAR active | superior potency profiles to that of the known RXR active pan-agonist compound 9-cis retinoic acid | – | –
CC(/C=C/C=C1/CC(C)(C)Oc2cc3c(cc21)C(C)(C)CCC3(C)C)=C\C(=O)O [Compound 104b, (2E,4E)-3-Methyl-6-(2,3,6,7,8,9-hexahydro-2,2,6,6,9,9-hexamethylbenzo[b]-chromen-4-ylidene)-hexa-2,4-dienoic acid] | – | potent and selective RXR compound | – | –
